The values below come from ChEMBL document CHEMBL3399967, “Design and discovery of 2-oxochromene derivatives as liver X receptor β-selective agonists” (Bioorg Med Chem Lett, 2015).

Structures are written as SMILES.

Data set [1] relates to Hamster. As to the kind of experiment: Effect on HDL-C level in high-fat-and-cholesterol diet fed Male Bio F1B hamster plasma at 300 mg/kg, po relative to control. Type of data set: functional, Cricetinae.
Data set [2] concerns Hamster. Put plainly: Effect on area of lipid accumulation in high-fat-and-cholesterol diet fed Male Bio F1B hamster aortic arch at 100 mg/kg, po relative to control. The class given is functional, Cricetinae, Pharyngeal arch artery.
Data set [3] can be described thus: Plasma concentration in Golden Syrian hamster at 300 mg/kg, po after 0.5 hrs. Type of data set: ADME, organism-based, Mesocricetus auratus. Also noted: dose 300 mg/kg, route oral.
Data set [4] deals with Hamster. As to the kind of experiment: Effect on HDL-C level in high-fat-and-cholesterol diet fed Male Bio F1B hamster plasma at 100 mg/kg, po relative to control. Type of data set: functional, Cricetinae.
Data set [5] concerns Hamster. Put plainly: Effect on total cholesterol level in high-fat-and-cholesterol diet fed Male Bio F1B hamster plasma at 100 mg/kg, po relative to control. Type of data set: functional, Cricetinae.
Data set [6] has as its system Hamster. As to the kind of experiment: Effect on Plasma triglyceride level in high-fat-and-cholesterol diet fed Male Bio F1B hamster at 30 mg/kg, po relative to control. Type of data set: organism-based. Also noted: dose 30 mg/kg, route oral. The settings on record: cricetinae, in vivo.
Data set [7] can be described thus: Plasma concentration in Golden Syrian hamster at 300 mg/kg, po after 1 hr. The class given is ADME, organism-based, Mesocricetus auratus. Also noted: dose 300 mg/kg, route oral.
The test system of data set [8] is Hamster. Put plainly: Effect on area of lipid accumulation in high-fat-and-cholesterol diet fed Male Bio F1B hamster aortic arch at 30 mg/kg, po relative to control. Type of data set: functional, Cricetinae.
For data set [9], the system named is Hamster. Put plainly: Effect on HDL-C level in high-fat-and-cholesterol diet fed Male Bio F1B hamster plasma at 30 mg/kg, po relative to control. The class given is functional, Cricetinae.
A further data set deals with Syrian golden hamster. As to the kind of experiment: Plasma concentration in Golden Syrian hamster at 100 mg/kg, po. The class given is ADME, organism-based, Mesocricetus auratus. Also noted: dose 100 mg/kg, route oral. The settings on record: in vivo.
Data set [10] in a line: Plasma concentration in Golden Syrian hamster at 300 mg/kg, po after 2 hrs. The class given is ADME, organism-based, Mesocricetus auratus. Also noted: dose 300 mg/kg, route oral.
Data set [11] relates to Hamster. Put plainly: Effect on area of lipid accumulation in high-fat-and-cholesterol diet fed Male Bio F1B hamster aortic arch at 300 mg/kg, po relative to control. The class given is functional, Cricetinae, Pharyngeal arch artery.
For data set [12], the system named is Hamster. As to the kind of experiment: Effect on Plasma triglyceride level in high-fat-and-cholesterol diet fed Male Bio F1B hamster at 100 mg/kg, po relative to control. Also noted: dose 100 mg/kg, route oral. The settings on record: cricetinae, in vivo. Type of data set: organism-based.
In data set [13] the test system is Hamster. As to the kind of experiment: Effect on Plasma triglyceride level in high-fat-and-cholesterol diet fed Male Bio F1B hamster at 300 mg/kg, po relative to control. Type of data set: organism-based. Also noted: dose 300 mg/kg, route oral. The settings on record: cricetinae, in vivo.
Data set [14] deals with Hamster. As to the kind of experiment: Effect on total cholesterol level in high-fat-and-cholesterol diet fed Male Bio F1B hamster plasma at 300 mg/kg, po relative to control. The class given is functional, Cricetinae.
Data set [15] concerns Hamster. As to the kind of experiment: Effect on total cholesterol level in high-fat-and-cholesterol diet fed Male Bio F1B hamster plasma at 30 mg/kg, po relative to control. The class given is functional, Cricetinae.
Data set [16] concerns Hamster. Put plainly: Effect on Plasma triglyceride level in high-fat-and-cholesterol diet fed Male Bio F1B hamster at 3 to 10 mg/kg, po relative to control. Type of data set: organism-based. Also noted: dose 3-10 mg/kg, route oral. The settings on record: cricetinae, in vivo.
Data set [17] has as its system Hamster. As to the kind of experiment: Effect on area of lipid accumulation in high-fat-and-cholesterol diet fed Male Bio F1B hamster aortic arch at 3 mg/kg, po relative to control. Type of data set: functional, Cricetinae.
In data set [18] the test system is Hamster. Put plainly: Effect on HDL-C level in high-fat-and-cholesterol diet fed Male Bio F1B hamster plasma at 3 mg/kg, po relative to control. Type of data set: functional, Cricetinae.
Data set [19] has as its system Hamster. Put plainly: Effect on area of lipid accumulation in high-fat-and-cholesterol diet fed Male Bio F1B hamster aortic arch at 10 mg/kg, po relative to control. The class given is functional, Cricetinae.
Data set [20] deals with Hamster. Put plainly: Effect on Plasma triglyceride level in high-fat-and-cholesterol diet fed Male Bio F1B hamster at 3 mg/kg, po relative to control. The class given is organism-based. Also noted: dose 3 mg/kg, route oral. Conditions: cricetinae, in vivo; call rule not given here.
Data set [21] has as its system Hamster. Put plainly: Effect on HDL-C level in high-fat-and-cholesterol diet fed Male Bio F1B hamster plasma at 3 to 10 mg/kg, po relative to control. The class given is functional, Cricetinae. The settings on record: dose mg/kg 3-10.
Data set [22] relates to Hamster. As to the kind of experiment: Effect on Plasma triglyceride level in high-fat-and-cholesterol diet fed Male Bio F1B hamster at 10 mg/kg, po relative to control. Type of data set: organism-based. Also noted: dose 10 mg/kg, route oral. The settings on record: cricetinae, in vivo.
Data set [23] concerns Hamster. Put plainly: Effect on total cholesterol level in high-fat-and-cholesterol diet fed Male Bio F1B hamster plasma at 10 mg/kg, po relative to control. The class given is functional, Cricetinae.
Data set [24] relates to Hamster. Put plainly: Effect on HDL-C level in high-fat-and-cholesterol diet fed Male Bio F1B hamster plasma at 10 mg/kg, po relative to control. The class given is functional, Cricetinae.
For data set [25], the system named is Hamster. As to the kind of experiment: Effect on total cholesterol level in high-fat-and-cholesterol diet fed Male Bio F1B hamster plasma at 3 mg/kg, po relative to control. Type of data set: functional, Cricetinae.

Consider `CCCc1c(OCCCCN2C(=O)NC(C)(c3ccc(OC)cc3)C2=O)ccc2c(C(F)(F)F)cc(=O)oc12` (stereo unspecified), for which the Activity with Hamster [1] is reported as 113%; in the data set with Hamster [2], 102%; in the data set with Hamster [4], 96%; with Hamster [5], 101%; in the data set on Hamster [6], 136%; in the data set with Hamster [8] it was 119%. The Activity worked out at 96% in the data set on Hamster [9]; 56% in the data set with Hamster [11]; 131% with Hamster [12]; 96% in the data set on Hamster [13]; 98% in the data set with Hamster [14]; 115% with Hamster [15]. This compound also had a concentration at 0.5 h in [3] of 50 ng/mL. In addition, the concentration at 1 h in [7] came to 53 ng/mL. The Cp entry in the data set with Syrian golden hamster is listed as “Not Active”. The compound further gave a concentration at 2 h in data set [10] of 59 ng/mL.
Take `O=S(=O)(c1ccccc1)N(CC(F)(F)F)c1ccc(C(O)(C(F)(F)F)C(F)(F)F)cc1` [T091317]: the Activity is on record as 50% in the data set with Hamster [16]; 53% with Hamster [17]; 67% in the data set with Hamster [18]; 52% in the data set with Hamster [19]; 206% in the data set on Hamster [20]; 243% in the data set with Hamster [22]. Also, the figures for the Activity in the data set on Hamster [23], in the data set on Hamster [24] and in the data set on Hamster [25] were 127%, 59% and 123%, respectively. Also, the “fold change (FC)” value with Hamster [21] is on record as 3.
